# Measured values: patent US4405743A, “Pyrazolylpyrimidine derivatives” (Hokko Chemical Industry Co., Ltd., priority 1981, dated 1983)
# Read-outs that look alike come from different tables or passages of the source.
# What was measured:
# rice plant [1] = conditions: blast curative test, 200 ppm
# Sphaerotheca friliginea = experiment: Effect of controlling cucumber powdery mildew, Experimental Example 4; type: in vivo; conditions: sprayed liquid 200 ppm, 10 days after inoculation
# Experimental: 10 ml of each of test liquids diluted to a predetermined concentration was sprayed over seedlings of a cucumber plant (variety: Sagami Hanpaku) grown up to the first leaf stage which has been soil cultured in an unglazed pot with a diameter of 9 cm in a green house. After allowing to stand overnight, the seedlings were sprayed for inoculation with a spore suspension of Sphaerotheca friliginea. Ten days after the inoculation, the rate of a lesion area (%) was checked and a control value was evaluated from the following equation. The degree of chemical injury against a cucumber plant was determined in the same manner as in Experimental Example.
# rice plant [2] = conditions: blast prevention test, 200 ppm
# Pyricularia oryzae [3] = experiment: microbe, parasite or virus in culture; type: cell-based; conditions: read-out: ED50 value
# Pyricularia oryzae [4] = type: in vivo, Pyricularia oryzae on rice plant (variety: Asahi); conditions: rice blast, curative treatment; sprayed liquid 200 ppm; 5 days after spraying
# cucumber plant = conditions: in vivo
# Botrytis cinerea = experiment: Antimicrobial activity (mycelium growth inhibition, PDA medium); type: cell-based; conditions: 24° C., read-out: ED50 value
# Experimental: (§1) Experimental Example 5 (Test for Antimicrobial Activity Against Various Plant Phathogenic Fungi)
# (§2) 1 ml of an acetone solution of each of test compounds and 20 ml of the PDA medium (50° C.) to prepare media containing the chemical in different concentrations, followed by charging into a petri dish with a diameter of 9 cm where it was solidified flat. On the central portion of the chemical-containing medium was inoculated a fungus-containing medium a piece of ager black-containing mycelia which was obtained by punching by means of a cork borer the tip portion of mycelia of each test fungus which had been cultured in advance in the PDA medium, followed by cultivating at 24° C. Two to six days after the cultivation, the diameter of the mycelia was measured and mycelium growth inhibiting rate was calculated from a comparison with that of a non-treated plot. The mycelium growth inhibiting rate was plotted on a logarithmic probability paper to determine an ED50 value.
# Pellicularia sasakii = experiment: as above; type: cell-based; conditions: 24° C., read-out: ED50 value
# Experimental: as §1, §2
# Glomerella cingulata = experiment: as above; type: cell-based; conditions: Colletotrichum gloeosporioides, 24° C., read-out: ED50 value
# Experimental: as §1, §2
# [5] = tested on: Helminthosporium gramineum; experiment: as above; type: cell-based; conditions: 24° C., read-out: ED50 value
# Experimental: as §1, §2
# Sclerotinia sclerotiorum = experiment: as above; type: cell-based; conditions: 24° C., read-out: ED50 value
# Experimental: as §1, §2
# Penicillium digitatum = experiment: as above; type: cell-based; conditions: 24° C., read-out: ED50 value
# Experimental: as §1, §2
# Phoma lingam = experiment: as above; type: cell-based; conditions: Plenodomus lingam, 24° C., read-out: ED50 value
# Experimental: as §1, §2
# Endothia parasitica = experiment: as above; type: cell-based; conditions: Cryphonectria parasitica, 24° C., read-out: ED50 value
# Experimental: as §1, §2
# Alternaria padwikii = experiment: as above; type: cell-based; conditions: 24° C., read-out: ED50 value
# Experimental: as §1, §2
# Mycosphaerella melonis = experiment: as above; type: cell-based; conditions: 24° C., read-out: ED50 value
# Experimental: as §1, §2
# Curvularia sp. = experiment: as above; type: cell-based; conditions: 24° C., read-out: ED50 value
# Experimental: as §1, §2
# Diaporthe citri = experiment: as above; type: cell-based; conditions: 24° C., read-out: ED50 value
# Experimental: as §1, §2
# Fusarium nivale = experiment: as above; type: cell-based; conditions: Microdochium nivale, 24° C., read-out: ED50 value
# Experimental: as §1, §2
# Phizoctonia solani = experiment: as above; type: cell-based; conditions: 24° C., read-out: ED50 value
# Experimental: as §1, §2
# Sclerotinia fructigena = experiment: as above; type: cell-based; conditions: 24° C., read-out: ED50 value
# Experimental: as §1, §2
# Pyricularia oryzae [6] = type: in vivo, Pyricularia oryzae on rice plant (variety: Asahi); conditions: rice blast, prevention; 200 ppm; 5 days after inoculation
# Cochliobolus miyabeanus [7] = experiment: Effect of controlling rice brown spot, Experimental Example 3; type: in vivo, Cochliobolus miyabeanus on rice plant (variety: Asahi); conditions: sprayed liquid 500 ppm, 5 days after inoculation
# rice plant [8] = conditions: in vivo
# Cochliobolus miyabeanus [9] = experiment: Antimicrobial activity (mycelium growth inhibition, PDA medium); type: cell-based; conditions: Bipolaris oryzae, read-out: ED50 value
smiles,measurement,setting,value
CCOc1nc(-n2nc(C)cc2C)ncc1C [Compound 32],Degree of chemical injury,rice plant [1],0
same,Control Value,Sphaerotheca friliginea,93%
same,Degree of chemical injury,rice plant [2],0
same,IC50,Pyricularia oryzae [3],0.8 µg/mL
same,Control Value,Pyricularia oryzae [4],93%
same,Degree of chemical injury,cucumber plant,0
same,IC50,Botrytis cinerea,13.8 µg/mL
same,IC50,Pellicularia sasakii,1.5 µg/mL
same,IC50,Glomerella cingulata,7 µg/mL
same,IC50,[5],7.5 µg/mL
same,IC50,Sclerotinia sclerotiorum,5.5 µg/mL
same,IC50,Penicillium digitatum,0.6 µg/mL
same,IC50,Phoma lingam,5.3 µg/mL
same,IC50,Endothia parasitica,7.5 µg/mL
same,IC50,Alternaria padwikii,1.2 µg/mL
same,IC50,Mycosphaerella melonis,1.8 µg/mL
same,IC50,Curvularia sp.,1.6 µg/mL
same,IC50,Diaporthe citri,4 µg/mL
same,IC50,Fusarium nivale,2.3 µg/mL
same,IC50,Phizoctonia solani,2.4 µg/mL
same,IC50,Sclerotinia fructigena,0.9 µg/mL
same,Control Value,Pyricularia oryzae [6],100%
same,Control Value,Cochliobolus miyabeanus [7],76%
same,Degree of chemical injury,rice plant [8],0
same,IC50,Cochliobolus miyabeanus [9],3.8 µg/mL
Cc1cc(C)n(-c2ncc(C)c(Sc3ccccc3)n2)n1 [Compound 35],Degree of chemical injury,rice plant [1],0
same,Control Value,Sphaerotheca friliginea,100%
same,Degree of chemical injury,rice plant [2],0
same,IC50,Pyricularia oryzae [3],0.2 µg/mL
same,Control Value,Pyricularia oryzae [4],95%
same,Degree of chemical injury,cucumber plant,0
same,IC50,Botrytis cinerea,9.6 µg/mL
same,IC50,Pellicularia sasakii,1.3 µg/mL
same,IC50,Glomerella cingulata,9.6 µg/mL
same,IC50,[5],6.3 µg/mL
same,IC50,Sclerotinia sclerotiorum,6.1 µg/mL
same,IC50,Penicillium digitatum,0.8 µg/mL
same,IC50,Phoma lingam,4.6 µg/mL
same,IC50,Endothia parasitica,6.8 µg/mL
same,IC50,Alternaria padwikii,1 µg/mL
same,IC50,Mycosphaerella melonis,2 µg/mL
same,IC50,Curvularia sp.,1.8 µg/mL
same,IC50,Diaporthe citri,4.6 µg/mL
same,IC50,Fusarium nivale,2.6 µg/mL
same,IC50,Phizoctonia solani,2.8 µg/mL
same,IC50,Sclerotinia fructigena,0.7 µg/mL
same,Control Value,Pyricularia oryzae [6],84%
same,Control Value,Cochliobolus miyabeanus [7],92%
same,Degree of chemical injury,rice plant [8],0
same,IC50,Cochliobolus miyabeanus [9],4.3 µg/mL
Cc1cc(C)n(-c2nc(C)c(C)c(Oc3ccccc3)n2)n1 [Compound 38],Degree of chemical injury,rice plant [1],0
same,Control Value,Sphaerotheca friliginea,100%
same,Degree of chemical injury,rice plant [2],0
same,IC50,Pyricularia oryzae [3],0.04 µg/mL
same,Control Value,Pyricularia oryzae [4],100%
same,Degree of chemical injury,cucumber plant,0
same,IC50,Botrytis cinerea,8.8 µg/mL
same,IC50,Pellicularia sasakii,1.2 µg/mL
same,IC50,Glomerella cingulata,7.3 µg/mL
same,IC50,[5],3.2 µg/mL
same,IC50,Sclerotinia sclerotiorum,3.6 µg/mL
same,IC50,Penicillium digitatum,1.4 µg/mL
same,IC50,Phoma lingam,2.7 µg/mL
same,IC50,Endothia parasitica,6.2 µg/mL
same,IC50,Alternaria padwikii,1.7 µg/mL
same,IC50,Mycosphaerella melonis,4 µg/mL
same,IC50,Curvularia sp.,1.5 µg/mL
same,IC50,Diaporthe citri,3.8 µg/mL
same,IC50,Fusarium nivale,2.7 µg/mL
same,IC50,Phizoctonia solani,2 µg/mL
same,IC50,Sclerotinia fructigena,1.6 µg/mL
same,Control Value,Pyricularia oryzae [6],100%
same,Control Value,Cochliobolus miyabeanus [7],87%
same,Degree of chemical injury,rice plant [8],0
same,IC50,Cochliobolus miyabeanus [9],2.8 µg/mL
CCCCc1c(C)nc(-n2nc(C)cc2C)nc1OCC [Compound 41],Degree of chemical injury,rice plant [1],0
same,Control Value,Sphaerotheca friliginea,94%
same,Degree of chemical injury,rice plant [2],0
same,IC50,Pyricularia oryzae [3],0.01 µg/mL
same,Control Value,Pyricularia oryzae [4],100%
same,Degree of chemical injury,cucumber plant,0
same,IC50,Botrytis cinerea,4.5 µg/mL
same,IC50,Pellicularia sasakii,1.1 µg/mL
same,IC50,Glomerella cingulata,4.1 µg/mL
same,IC50,[5],2.8 µg/mL
same,IC50,Sclerotinia sclerotiorum,3.8 µg/mL
same,IC50,Penicillium digitatum,1.1 µg/mL
same,IC50,Phoma lingam,2.6 µg/mL
same,IC50,Endothia parasitica,4.6 µg/mL
same,IC50,Alternaria padwikii,0.7 µg/mL
same,IC50,Mycosphaerella melonis,0.7 µg/mL
same,IC50,Curvularia sp.,1.6 µg/mL
same,IC50,Diaporthe citri,2 µg/mL
same,IC50,Fusarium nivale,0.2 µg/mL
same,IC50,Phizoctonia solani,1.4 µg/mL
same,IC50,Sclerotinia fructigena,1.5 µg/mL
same,Control Value,Pyricularia oryzae [6],100%
same,Control Value,Cochliobolus miyabeanus [7],100%
same,Degree of chemical injury,rice plant [8],0
same,IC50,Cochliobolus miyabeanus [9],1.4 µg/mL
CCCCc1c(C)nc(-n2nc(C)cc2C)nc1SCC [Compound 42],Degree of chemical injury,rice plant [1],0
same,Control Value,Sphaerotheca friliginea,92%
same,Degree of chemical injury,rice plant [2],0
same,IC50,Pyricularia oryzae [3],0.02 µg/mL
same,Control Value,Pyricularia oryzae [4],100%
same,Degree of chemical injury,cucumber plant,0
same,IC50,Botrytis cinerea,3.7 µg/mL
same,IC50,Pellicularia sasakii,2 µg/mL
same,IC50,Glomerella cingulata,4 µg/mL
same,IC50,[5],5.2 µg/mL
same,IC50,Sclerotinia sclerotiorum,5.2 µg/mL
same,IC50,Penicillium digitatum,2 µg/mL
same,IC50,Phoma lingam,3.2 µg/mL
same,IC50,Endothia parasitica,3.8 µg/mL
same,IC50,Alternaria padwikii,0.7 µg/mL
same,IC50,Mycosphaerella melonis,0.9 µg/mL
same,IC50,Curvularia sp.,1.4 µg/mL
same,IC50,Diaporthe citri,2.7 µg/mL
same,IC50,Fusarium nivale,2 µg/mL
same,IC50,Phizoctonia solani,1.3 µg/mL
same,IC50,Sclerotinia fructigena,2.1 µg/mL
same,Control Value,Pyricularia oryzae [6],100%
same,Control Value,Cochliobolus miyabeanus [7],100%
same,Degree of chemical injury,rice plant [8],0
same,IC50,Cochliobolus miyabeanus [9],1.8 µg/mL
